Reference: US4749703A, “Calcium antagonist piperazine derivatives, and compositions therefor” (Dainippon Pharmaceutical Co., Ltd., priority 1984, dated 1988)

Legend:
[1] = tested on: methacholine-induced ST elevation; assay: Preventive effect on methacholine-induced ST elevation (experimental model of variant angina); format: in vivo, Male SD strain rats; conditions: i.v.; for ST elevation, administn. of M (8 μg) after administn. of test compd. (at peak time): ± S.E.; for preventive effect on the ST elevation (in words): compared with diltiazem hydrochloride
Method: (2) Preventive effect on methacholine-induced ST elevation (effect in experimental model of variant angina)
The test was carried out according to the method of Sakai et al. [cf. J. Pharmacol. Methods, 5, 325-336 (1981)].
Male SD strain rats, weighing about 500 g, were anesthetized with 60 mg/kg (i.p.) of sodium pentobarbital. Lead II electrocardiogram was recorded. The ST elevation was produced with 8.0 μg of metacholine given into the coronary […] through the cannula inserted from the right carotid artery. The test compound, dissolved in 5% ethanol-physiological saline solution, was administered intravenously. The amplitude of ST elevation was measured by means of the computer 0.5, 5 and 10 minutes after the administration of the test compound and afterward at intervals of 10-minute. The effect of the test compound was evaluated by comparing the amplitude of ST elevation after administration of the test compound with that before the administration. Each group of 5 rats was used for each dose of the test compound.
The abbreviation M in the table represents metacholine.

[2] = tested on: vasopressin-induced ST depression; assay: Preventive effect on vasopressin-induced ST depression (experimental model of angina pectoris); format: in vivo, Male Donryu strain rats; set-up: key to Preventive effect on ST depression, 7 hours / Preventive effect on ST depression, 1 hour / Preventive effect on ST depression, 5 hours / Preventive effect on ST depression, 3 hours: +: Significantly different from vehicle control (P < 0.05); -: No significant difference; conditions: for Preventive effect on ST depression, 1 hour: 1 hour following administration; for Preventive effect on ST depression, 3 hours: 3 hours following administration; for Preventive effect on ST depression, 5 hours: 5 hours following administration; for Preventive effect on ST depression, 7 hours: 7 hours following administration; for preventive effect on the ST depression (in words): p.o., compared with diltiazem hydrochloride
Method: (1) Preventive effect on vasopressin-induced ST depression (effect in experimental model of angina pectoris)
The test was carried out according to the method of Hatano et al. [cf. Pharmacometrics, 19, 311-317 (1980)].
Male Donryu strain rats, weighing 130-180 g, were anesthetized with 60 mg/kg (i.p.) of sodium pentobarbital. Lead II electrocardiogram was recorded. The ST depression produced with 0.2 IU/kg (i.v.) of vasopressin was recorded at intervals of a given period for 5 minutes after the administration of vasopressin. The test compound, suspended in 0.5% aqueous tragacanth solution, was administered orally 1, 3, 5 and 7 hours before the administration of vasopressin. The amplitude of ST depression was measured by means of the computer, and the data were analyzed statistically by two-dimensional analysis between the control group and the treated group to evaluate the effect of the test compound. Each group of 5 rats was used for each dose of the test compound.

in vivo = conditions: mouse, mortality for 7 days
Text: STD-ddY strain mice were used in groups of 10 animals each.

[3] = tested on: spontaneously hypertensive rats (SHR); assay: Antihypertensive activity in spontaneously hypertensive rats (SHR); format: in vivo, male SHR (Okamoto and Aoki strain) rats; conditions: 30 mg/kg
Method: The animals used were male SHR [Okamoto and Aoki strain; cf. Jap. Circul. […] Proc. Soc. […] The other end of the cannula was exposed through the skin on the back of the neck and fixed. After 1 to 4 days, the aortic cannula was connected to a pressure transducer (produced by Nihon Koden Co., Ltd., Japan; Model MP-4T), and conscious blood pressure was measured by direct method. On the day of the experiment, the blood pressure was measured for one hour prior to dosing. The test compound, suspended in 0.5% aqueous tragacanth solution, was administered orally at a volume of 3.0 ml/kg and the blood pressure was measured continuously for 5 hours.
The changes of blood pressure are expressed by the mean pressure calculated from the values of systolic and diastolic pressure.

[4] = 0.3 mg/kg, * P < 0.05, ** P < 0.01
[5] = ip, single intraperitoneal administration

SMILES	peak time (preventive effect on ST elevation) ([1]; 0.1 mg/kg) [min]	ST elevation, administn. of M (8 μg) after administn. of test compd. (at peak time) ([1]; 0.1 mg/kg, * P < 0.05)	peak time (preventive effect on ST elevation) ([1]; 0.3 mg/kg) [min]	ST elevation, administn. of M (8 μg) after administn. of test compd. (at peak time) [1, 4]	peak time (preventive effect on ST elevation) ([1]; 1.0 mg/kg) [min]	ST elevation, administn. of M (8 μg) after administn. of test compd. (at peak time) ([1]; 1.0 mg/kg, ** P < 0.01)	preventive effect on the ST elevation (in words) [1]	Preventive effect on ST depression, 1 hour ([2]; 3 mg/kg p.o.)	Preventive effect on ST depression, 3 hours ([2]; 3 mg/kg p.o.)	Preventive effect on ST depression, 5 hours ([2]; 3 mg/kg p.o.)	Preventive effect on ST depression, 1 hour ([2]; 10 mg/kg p.o.)	Preventive effect on ST depression, 5 hours ([2]; 10 mg/kg p.o.)	Preventive effect on ST depression, 7 hours ([2]; 10 mg/kg p.o.)	Preventive effect on ST depression, 7 hours ([2]; 30 mg/kg p.o.)	preventive effect on the ST depression (in words) [2]	LD50 at 168 h (in vivo; [5]) [mg/kg]	LD50 at 168 h (in vivo; single oral administration) [mg/kg]	Peak time (time of maximum hypotensive effect) ([3]; p.o.) [h]	maximum hypotensive effect (decrease compared with the initial blood pressure) ([3]; oral)	time of maximum hypotensive effect ([3]; oral) [h]
O=C(CCCN1CCN(c2ccc(F)cc2)CC1)NC1c2ccccc2C=Cc2ccccc21 [79(3), 5-[4-[4-(4-fluorophenyl)-1-piperazinyl]butyrylamino]-5H-dibenzo[a,d]cycloheptene]	5	+0.12 ± 0.02 ΔmV	0.5	+0.04 ± 0.02 ΔmV	0.5	+0.08 ± 0.01 ΔmV	preventive effect on the ST elevation comparable to that of diltiazem hydrochloride	+	+	-	+	+	-	+	more prolonged preventive effect on the ST depression than diltiazem hydrochloride	> 1000	> 4000			
O=C(CCCN1CCN(c2ccc(F)cc2)CC1)NC1c2ccccc2CSc2ccccc21 (stereo not drawn) [Example 1(3), 11-[4-[4-(4-fluorophenyl)-1-piperazinyl]butyrylamino]-6,11-dihydrodibenzo[b,e]thiepin]	0.5	+0.14 ± 0.02 ΔmV	5	+0.09 ± 0.02 ΔmV	0.5	+0.09 ± 0.01 ΔmV	preventive effect on the ST elevation comparable to that of diltiazem hydrochloride	+	-		+	+	-	+	more prolonged preventive effect on the ST depression than diltiazem hydrochloride	> 1000	> 4000	5	12-14%	4 to 5
